Test results: BindingDB's records for PubMed 11082457 (Centre De Recherches De Croissy, 2000)

What was measured:
[1] = target: T1, Amine oxidase [flavin-containing] A (Rattus norvegicus, UniProt P21396)
T1 sequence (P21396 whole entry): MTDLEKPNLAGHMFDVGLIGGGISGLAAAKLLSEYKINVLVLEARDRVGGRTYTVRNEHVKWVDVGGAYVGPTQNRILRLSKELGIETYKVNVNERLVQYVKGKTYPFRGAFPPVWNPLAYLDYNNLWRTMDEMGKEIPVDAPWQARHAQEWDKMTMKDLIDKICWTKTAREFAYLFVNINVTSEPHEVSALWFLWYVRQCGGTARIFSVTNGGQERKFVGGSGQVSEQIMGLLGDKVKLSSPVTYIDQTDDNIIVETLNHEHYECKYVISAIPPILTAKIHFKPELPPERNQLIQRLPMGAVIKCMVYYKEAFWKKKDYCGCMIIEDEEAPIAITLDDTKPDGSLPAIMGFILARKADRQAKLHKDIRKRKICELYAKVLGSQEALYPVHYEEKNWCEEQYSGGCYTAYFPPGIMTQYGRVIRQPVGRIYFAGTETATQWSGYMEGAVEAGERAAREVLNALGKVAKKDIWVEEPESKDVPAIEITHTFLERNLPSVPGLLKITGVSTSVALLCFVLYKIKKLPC

[2] = target: T2, Amine oxidase [flavin-containing] B (Rattus norvegicus, UniProt P19643)
T2 sequence (P19643 whole entry): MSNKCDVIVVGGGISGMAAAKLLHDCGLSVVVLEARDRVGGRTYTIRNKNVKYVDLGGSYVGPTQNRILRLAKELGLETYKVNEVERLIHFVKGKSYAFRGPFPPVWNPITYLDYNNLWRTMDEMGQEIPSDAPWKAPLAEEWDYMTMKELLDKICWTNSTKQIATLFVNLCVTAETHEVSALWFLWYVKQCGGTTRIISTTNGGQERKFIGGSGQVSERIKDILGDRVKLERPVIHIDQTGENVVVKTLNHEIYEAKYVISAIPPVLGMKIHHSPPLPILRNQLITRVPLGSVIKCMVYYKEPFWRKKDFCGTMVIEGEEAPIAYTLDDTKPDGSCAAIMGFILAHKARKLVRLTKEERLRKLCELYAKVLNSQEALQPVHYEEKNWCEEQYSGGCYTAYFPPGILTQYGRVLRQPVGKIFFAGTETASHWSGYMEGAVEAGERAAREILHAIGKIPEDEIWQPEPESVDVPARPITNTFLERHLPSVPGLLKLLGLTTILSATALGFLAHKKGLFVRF

[3] = target: Sodium-dependent noradrenaline transporter (Homo sapiens, UniProt P23975)
[4] = target: T3, Alpha-1B adrenergic receptor (Homo sapiens, UniProt P35368)
T3 sequence (P35368 whole entry): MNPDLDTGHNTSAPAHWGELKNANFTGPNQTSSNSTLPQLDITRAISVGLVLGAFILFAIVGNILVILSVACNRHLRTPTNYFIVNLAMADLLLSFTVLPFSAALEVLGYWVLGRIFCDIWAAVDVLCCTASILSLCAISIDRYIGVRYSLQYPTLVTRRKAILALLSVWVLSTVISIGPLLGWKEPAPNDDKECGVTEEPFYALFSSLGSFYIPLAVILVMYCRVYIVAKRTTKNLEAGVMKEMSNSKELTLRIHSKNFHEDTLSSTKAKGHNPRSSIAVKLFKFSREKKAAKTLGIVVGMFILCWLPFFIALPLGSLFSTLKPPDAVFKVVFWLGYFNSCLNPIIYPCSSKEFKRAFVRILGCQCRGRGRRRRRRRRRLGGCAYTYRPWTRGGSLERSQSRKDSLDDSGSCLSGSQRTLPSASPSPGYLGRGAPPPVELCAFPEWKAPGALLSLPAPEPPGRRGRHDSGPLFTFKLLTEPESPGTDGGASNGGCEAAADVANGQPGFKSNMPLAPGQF

[5] = target: T4, Alpha-1D adrenergic receptor (Homo sapiens, UniProt P25100)
T4 sequence (P25100 whole entry): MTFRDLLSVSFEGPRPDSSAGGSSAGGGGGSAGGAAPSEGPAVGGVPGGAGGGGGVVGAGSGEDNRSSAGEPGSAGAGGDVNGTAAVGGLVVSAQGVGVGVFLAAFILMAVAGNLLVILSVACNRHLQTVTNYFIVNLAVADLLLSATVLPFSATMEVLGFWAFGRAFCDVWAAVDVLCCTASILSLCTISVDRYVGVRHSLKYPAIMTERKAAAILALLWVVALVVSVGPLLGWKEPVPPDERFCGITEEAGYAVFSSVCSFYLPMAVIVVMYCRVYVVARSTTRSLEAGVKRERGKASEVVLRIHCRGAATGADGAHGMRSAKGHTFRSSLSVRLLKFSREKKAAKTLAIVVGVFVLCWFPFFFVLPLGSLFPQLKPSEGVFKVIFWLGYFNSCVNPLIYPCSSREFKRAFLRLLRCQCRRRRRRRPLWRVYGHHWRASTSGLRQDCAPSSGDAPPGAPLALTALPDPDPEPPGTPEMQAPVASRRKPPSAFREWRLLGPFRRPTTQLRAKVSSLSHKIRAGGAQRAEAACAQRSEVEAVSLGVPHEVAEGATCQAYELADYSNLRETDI

Nischarin = Nischarin (Rattus norvegicus, UniProt Q4G017)
Chain of Nischarin (Q4G017 whole entry): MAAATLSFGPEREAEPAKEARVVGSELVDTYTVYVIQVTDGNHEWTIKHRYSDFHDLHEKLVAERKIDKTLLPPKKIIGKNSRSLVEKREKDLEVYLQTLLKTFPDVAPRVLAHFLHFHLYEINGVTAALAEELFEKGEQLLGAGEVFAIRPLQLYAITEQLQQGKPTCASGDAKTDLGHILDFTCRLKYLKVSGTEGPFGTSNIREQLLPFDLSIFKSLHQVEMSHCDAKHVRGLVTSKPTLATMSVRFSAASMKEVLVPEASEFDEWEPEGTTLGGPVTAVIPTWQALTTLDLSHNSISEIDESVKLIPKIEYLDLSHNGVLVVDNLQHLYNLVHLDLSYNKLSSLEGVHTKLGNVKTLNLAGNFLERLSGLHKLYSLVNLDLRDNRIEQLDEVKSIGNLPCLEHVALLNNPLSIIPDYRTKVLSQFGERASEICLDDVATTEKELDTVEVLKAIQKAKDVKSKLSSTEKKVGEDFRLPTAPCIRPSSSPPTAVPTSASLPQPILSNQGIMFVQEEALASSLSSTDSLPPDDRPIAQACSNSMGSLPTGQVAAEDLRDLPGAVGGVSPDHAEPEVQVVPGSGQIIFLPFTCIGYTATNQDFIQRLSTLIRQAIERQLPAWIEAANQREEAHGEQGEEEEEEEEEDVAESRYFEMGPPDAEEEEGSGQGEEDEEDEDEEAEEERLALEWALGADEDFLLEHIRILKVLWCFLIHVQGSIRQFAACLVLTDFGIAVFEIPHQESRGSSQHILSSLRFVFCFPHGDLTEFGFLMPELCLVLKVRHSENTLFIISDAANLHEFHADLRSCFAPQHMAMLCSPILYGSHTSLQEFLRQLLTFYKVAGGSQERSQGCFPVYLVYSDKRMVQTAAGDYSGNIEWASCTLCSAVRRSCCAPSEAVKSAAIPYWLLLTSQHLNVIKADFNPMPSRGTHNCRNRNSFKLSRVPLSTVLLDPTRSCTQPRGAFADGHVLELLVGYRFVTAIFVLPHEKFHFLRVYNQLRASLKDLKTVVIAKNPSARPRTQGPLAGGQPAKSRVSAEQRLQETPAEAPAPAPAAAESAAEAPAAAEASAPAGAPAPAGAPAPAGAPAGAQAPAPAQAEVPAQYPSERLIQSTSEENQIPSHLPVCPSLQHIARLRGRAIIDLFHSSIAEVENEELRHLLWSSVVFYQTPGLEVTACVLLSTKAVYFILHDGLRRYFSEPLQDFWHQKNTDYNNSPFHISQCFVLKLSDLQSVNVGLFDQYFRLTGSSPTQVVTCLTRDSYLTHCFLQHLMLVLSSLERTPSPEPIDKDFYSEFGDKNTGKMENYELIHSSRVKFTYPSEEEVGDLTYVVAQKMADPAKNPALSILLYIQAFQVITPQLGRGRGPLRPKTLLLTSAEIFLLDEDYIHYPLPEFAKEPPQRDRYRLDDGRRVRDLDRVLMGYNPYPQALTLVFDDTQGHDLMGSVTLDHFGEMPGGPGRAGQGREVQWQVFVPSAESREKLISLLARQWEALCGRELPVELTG

Chain of Sodium-dependent noradrenaline transporter (P23975 whole entry): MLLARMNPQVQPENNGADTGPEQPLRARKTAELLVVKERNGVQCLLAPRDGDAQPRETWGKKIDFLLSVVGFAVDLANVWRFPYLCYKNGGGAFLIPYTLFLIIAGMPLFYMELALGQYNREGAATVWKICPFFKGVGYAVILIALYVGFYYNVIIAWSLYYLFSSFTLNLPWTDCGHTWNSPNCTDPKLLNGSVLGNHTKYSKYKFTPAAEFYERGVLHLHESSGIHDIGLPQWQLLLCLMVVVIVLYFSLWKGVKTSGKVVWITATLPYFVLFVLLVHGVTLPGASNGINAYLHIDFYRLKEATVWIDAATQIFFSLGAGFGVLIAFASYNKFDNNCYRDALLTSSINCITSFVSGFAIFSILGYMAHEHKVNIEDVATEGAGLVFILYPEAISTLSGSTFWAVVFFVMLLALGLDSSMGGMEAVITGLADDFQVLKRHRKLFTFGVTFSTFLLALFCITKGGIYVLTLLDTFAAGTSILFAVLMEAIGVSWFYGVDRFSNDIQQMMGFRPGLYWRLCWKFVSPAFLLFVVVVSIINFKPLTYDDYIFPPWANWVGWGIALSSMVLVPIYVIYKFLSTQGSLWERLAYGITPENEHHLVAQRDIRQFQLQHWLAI

Molecule `Clc1cccc(Cl)c1N=C1NCCN1` [2-(2,6-dichloroanilino)-2-imidazoline] has a Ki [1] of 1 µM, a Ki [2] of 1 µM and a Ki [3] of 1 µM. The Ki [4] was 0.316 µM, the Ki [5] was 0.126 µM and the Ki (Nischarin) was 1 µM.
